Source: patent US10905646B2, “Thermoplastic polyurethane film for delivery of active agents to skin surfaces” (Lubrizol Advanced Materials, Inc., priority 2014, dated 2021)
Where “and” joins values, the source holds several entries; their conditions need not be identical. Identical values can stand only once.

Legend:
[1] = Concentration of active in wet polymer K after soaking, by HPLC; type: physicochemical; details: replicate samples
Description: The sample is placed in approximately 5 mL of soaking solution (TABLE 17) and suspended for 30 minutes in the solution. The sample is periodically checked to ensure it remains totally immersed in the solution. At the end of soaking time, the sample is removed and reweighed (final sample diameter, about 2.1 cm). The concentration of caffeine in the wet polymer sample is measured by HPLC and is shown in TABLE 18 (HPLC: Shimadzu Scientific Prominence System; Column: […].: 250×4.6 mm; Carrier Phase: A: Water, B: Methanol (65:35 v/v); Oven Temperature: Room Temperature (approx. 22° C.); Flow Rate: 1 mL/min.; UV detection: 254 nm). […] At the conclusion of the 30 min. soaking period the sample is removed from the dimethylmethoxy chromanyl palmitate solution and re-weighed (TABLE 20). The final sample diameter is about 2.0 cm. […] At the conclusion of the 30 min. soaking period the sample is removed from the arbutin solution and re-weighed. The final sample diameter is about 2.2 cm. […] (TABLE 23) and suspended for 90 minutes in the solution. […] At the conclusion of the 90 min. soaking period the sample is removed from the acetyl hexapeptide-37 solution and re-weighed. The final sample diameter is about 2.2 cm. […] (TABLE 25) and suspended for 90 minutes in the acetyl hexapeptide-8 solution. […] At the end of the 90 minute soaking time, the square is removed and weighed again (final piece diameter: 2.2 cm). The same study is performed with a lower concentration of peptide, as follows. […] At the end of the soaking time, the square is removed from the low concentration acetyl hexapeptide-8 solution and weighed again (final piece diameter: 2.2 cm).

[2] = Percutaneous absorption study on pig skin, Franz diffusion cell; type: in vitro ADME, domestic pigs (Sus domesticus); details: Franz cell receptor fluid (PBS), HPLC
Description: A percutaneous absorption study is performed on pig skin test samples obtained from the back of domestic pigs (Sus domesticus) weighing about 30 kg. The pig skin is dermatomed to a thickness of about 500 microns and then test discs having a diameter of 2.5 cm are sectioned from the dermatomed skin. […] The loaded films are applied to the sample discs (in contact with the stratum corneum) for 30 minutes. Different layers of the film treated skin (stratum corneum, epidermis and dermis) are separated, assayed and analyzed for the quantity of caffeine and permeation into the respective layers of the skin. The quantitative analysis for caffeine and is conducted by HPLC utilizing the instrumentation identified above.
Additionally, the same solutions utilized to load the polymer films are topically applied across the entire surface of the stratum corneum of comparative pig skin disc samples prepared as above. […]
The lower chamber contained the receptor fluid (PBS solution, Sigma-Aldrich Co. LLC). The integrity of the skin is evaluated by measuring the transepidermal water loss (TEWL). […] The collected receptor fluid is analyzed by HPLC as described above.
The quantities of caffeine that permeated into each of the three different layers of the skin samples (stratum corneum, epidermis and dermis) are collected separately as follows. […]

OC[C@H]1O[C@@H](Oc2ccc(O)cc2)[C@H](O)[C@@H](O)[C@@H]1O [Arbutin, (2R,3S,4S,5R,6S)-2Hydroxymethyl-6(4hydroxyphenoxy)oxane-3,4,5triol]
% Arbutin (w/w), vs. wet polymer ([1]; film of polymer K soaked 30 minutes in soaking solution with 4 % arbutin, pH 5.5): 1.42 % (w/w) and 1.61 % (w/w) (2×) and 1.45 % (w/w) and 1.78 % (w/w)

Cn1c(=O)c2c(ncn2C)n(C)c1=O [caffeine]
Caffeine in the collected receptor fluid [2]: No caffeine was present | % caffeine (w/w), vs. wet polymer ([1]; film of polymer K soaked 30 min in soaking solution with 2 % caffeine, pH 4): 2.60 % (w/w) and 2.57 % (w/w) and 2.59 % (w/w) and 2.64 % (w/w) and 2.63 % (w/w) (2×)

CCCCCCCCCCCCCCCC(=O)Oc1cc2c(cc1OC)OC(C)(C)CC2 [dimethylmethoxy chromanyl palmitate]
% Dimethylmethoxy chromanyl palmitate (w/w), vs. wet polymer ([1]; film of Polymer K soaked 30 minutes in liposome soaking solution with 2 % dimethylmethoxy chromanyl palmitate): 1.074 % (w/w) and 0.964 % (w/w) and 1.009 % (w/w) and 0.994 % (w/w) and 0.888 % (w/w)

Acetyl Hexapeptide-8
% Acetyl Hexapeptide-8 (w/w), vs. wet polymer ([1]; polymer K soaked 90 minutes in a 1/5000 dilution with water of the 0.05 % soaking solution): 0.0017 % (w/w) and 0.0019 % (w/w) | % Acetyl Hexapeptide-8 (w/w), vs. wet polymer ([1]; polymer K soaked 90 minutes in soaking solution with 0.05 % acetyl hexapeptide-8): 0.0425 % (w/w) and 0.0420 % (w/w) and 0.0418 % (w/w) and 0.0434 % (w/w)
